Like-named read-outs stand apart in the source and are kept apart here.
Target: T1, hTRPA1 (Homo sapiens, UniProt O75762, K186N)
T1 construct: expressed in transfected cells; host or cells: HEK293/TREx (Invitrogen), induced with tetracycline
Assay: High throughput Ca2+ fluorescence (Fluo4) assay, AITC stimulation
Type: cell-based
Description: The assay depended on detection of the rise in intracellular Ca^2+ concentration ([Ca^2+]i) following channel activation in cells inducibly expressing the TRPA1 channel. Ca^2+ rise was quantified with the use of fluorescent Ca^2+ indicators that were loaded into cells and thereafter indicated the [Ca^2+]i. Ca^2+ influx followed activation of the TRPA1 channel. Compounds inhibiting the [Ca^2+]i rise were considered hits for further investigation.
These cells were maintained in the growth medium recommended by the manufacturer supplemented with 100 μg/ml hygromycin to promote retention of the TRPA1 construct. After growing to near confluency, cells were plated at a density of ˜25,000 cells/well in 384 well CellBind plates (Corning) in the presence of 1 μg/ml tetracycline, and allowed to grow for 20-30 hrs. A nearly confluent monolayer resulted. Cells were then loaded with Ca^2+ dye: Fura-2/AM or Fluo4/AM was added to the wells to a final concentration of 2 μM or 1 μM, respectively, and incubated for 80 min or 60 min, respectively, at room temperature. […] Frames were acquired at a rate of 0.2 Hz. During the assay, the plates were continuously […], with pipette mixing of wells following addition of each reagent. For the screening assay, 13 μl of a diluted stock (at 50 μM) was added to each well for 2 minutes following the collection of a short (4 frame) baseline. […] Data was collected for ˜3 minutes following addition of AITC, where the fluorescent intensity (for Fluo4) and the F340/F380 ratio (for Fura-2) were proportional to the [Ca^2+]i. Negative controls consisted of HEK293/TREx TRPA1 cells exposed to AITC, but no compound. […] These controls defined a screening window, and “hits” were defined as those compounds inhibiting the fluorescence response by at least 40%. IC50 values were determined for compounds defined as “hits.” The Fluo4 cell-based fluorescence assay was used to determine the intracellular Ca^2+ concentration in the presence of varying drug concentration. […] Compounds were tested in triplicate at all concentrations. Standard software was used to fit IC50 curves.

[1] = Table 2, read-out: hTRPA1 Fluor IC50
[2] = Table 1, read-out: hTRPA1 Fluo4 IC50

T1 sequence (O75762 whole entry K186N): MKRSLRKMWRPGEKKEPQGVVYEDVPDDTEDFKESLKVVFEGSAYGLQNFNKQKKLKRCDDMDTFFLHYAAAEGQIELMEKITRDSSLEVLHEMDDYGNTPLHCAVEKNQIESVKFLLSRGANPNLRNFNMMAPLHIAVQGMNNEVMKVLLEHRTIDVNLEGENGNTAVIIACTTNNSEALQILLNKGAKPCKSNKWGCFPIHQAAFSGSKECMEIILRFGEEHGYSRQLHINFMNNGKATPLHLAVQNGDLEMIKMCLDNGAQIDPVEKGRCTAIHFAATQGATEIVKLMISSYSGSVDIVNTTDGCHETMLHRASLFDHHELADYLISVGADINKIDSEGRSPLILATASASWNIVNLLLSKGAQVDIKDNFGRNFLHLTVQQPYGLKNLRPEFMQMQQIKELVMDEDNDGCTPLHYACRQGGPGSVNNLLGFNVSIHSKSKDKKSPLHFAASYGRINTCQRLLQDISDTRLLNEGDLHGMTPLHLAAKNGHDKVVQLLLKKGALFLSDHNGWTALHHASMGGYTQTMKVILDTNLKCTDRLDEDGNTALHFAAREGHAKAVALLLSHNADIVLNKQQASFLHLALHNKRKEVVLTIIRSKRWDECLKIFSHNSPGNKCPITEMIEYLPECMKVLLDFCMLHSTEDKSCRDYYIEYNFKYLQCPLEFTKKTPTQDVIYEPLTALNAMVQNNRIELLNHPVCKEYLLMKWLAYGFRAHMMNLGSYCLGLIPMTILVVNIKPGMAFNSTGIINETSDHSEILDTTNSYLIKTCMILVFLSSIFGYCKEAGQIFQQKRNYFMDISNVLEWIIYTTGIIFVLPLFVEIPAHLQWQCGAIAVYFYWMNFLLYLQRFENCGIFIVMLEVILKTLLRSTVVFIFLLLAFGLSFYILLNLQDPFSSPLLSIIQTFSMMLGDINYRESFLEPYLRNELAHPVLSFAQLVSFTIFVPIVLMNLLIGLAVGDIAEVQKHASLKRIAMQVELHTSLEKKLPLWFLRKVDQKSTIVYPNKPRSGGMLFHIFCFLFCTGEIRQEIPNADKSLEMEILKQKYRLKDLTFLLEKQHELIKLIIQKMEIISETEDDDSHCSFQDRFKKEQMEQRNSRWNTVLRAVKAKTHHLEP

Structure (SMILES)	IC50 [1] [µM]	IC50 [2] [µM]
CCC(C)OC(=O)C1=C(C)NC(=O)NC1c1ccccc1Cl (centres unmarked)		> 10
CC1=C(C(=O)Nc2ccccc2)C(c2ccc(F)cc2)NC(=S)N1 (centres unmarked)		≥ 30
CCN1C(=O)NC(c2cc(C)ccc2C)C(C(=O)OC)=C1C (centres unmarked)		> 10
CCOC(=O)C1=C(C)N(C)C(=O)NC1c1cccc(Cl)c1Cl (centres unmarked)		> 10
CC1=C(C(=O)OC(C)C)C(c2ccc(Cl)cc2)NC(=S)N1 (centres unmarked)		> 10
COC(C)OC(=O)C1=C(C)NC(=O)NC1c1cccc(Cl)c1Cl (centres unmarked)		> 10
CCOC(=O)C1=C(CN2CCN(C)CC2)NC(=O)NC1c1cc(C)ccc1C (centres unmarked)		> 10
CCOC(=O)c1ccc(NC(=O)Cn2cnc3c2c(=O)n(C)c(=O)n3C)cc1 [Compound 366]	≤ 5	
CC1=C(C(=O)OC(C)C)C(c2c(Cl)cccc2Cl)NC(=O)N1 (centres unmarked)		> 10
CCN(CC)C(=O)C1=C(C)NC(=S)NC1c1ccc(OC)cc1OC (centres unmarked)		> 10
Cc1nc(-c2ccc(CCNC(=O)Cn3cnc4c3c(=O)n(C)c(=O)n4C)cc2)cs1 [Compound 353]	≤ 5	
CCOC(=O)C1=C(C)NC(=O)NC1c1ccc(OCC)cc1 (centres unmarked)		> 10
CC1CCCCC1NC(=O)Cn1cnc2c1c(=O)n(C)c(=O)n2C (centres unmarked) [Compound 279]	> 10	
CC1=C(C(=O)OC2CCCCCC2)C(c2cccc(C)c2)NC(=O)N1 (centres unmarked)		> 10
CC1=C(C(=O)OC2CCCCC2)C(c2ccc(F)cc2)NC(=O)N1 (centres unmarked)		> 10
CC1CCCC(NC(=O)Cn2cnc3c2c(=O)n(C)c(=O)n3C)C1C (centres unmarked) [Compound 349]	> 10	
COC(=O)C1=C(C)NC(=S)NC1c1ccccc1C (centres unmarked)		≥ 30
CCN(CC)C(=O)C1=C(C)NC(=S)NC1c1ccccc1OC (centres unmarked)		> 10
COC(=O)C1=C(C)NC(=S)NC1c1ccc(OC(C)C)cc1 (centres unmarked)		> 10
CCN(CC)C(=O)C1=C(C)NC(=S)NC1c1ccc(C)cc1 (centres unmarked)		> 10
CCOC(=O)C1=C(C)N(CC)C(=O)NC1c1ccccc1Cl (centres unmarked)		≥ 20
CCOC(=O)C1=C(C)NC(=O)NC1c1ccc(SC)cc1 (centres unmarked)		> 10
C=CCOC(=O)C1=C(C)NC(=O)NC1c1ccc(C)cc1 (centres unmarked)		≤ 5
COC(=O)C1=C(CN2CCc3ccccc32)NC(=O)NC1c1cc(C)ccc1C (centres unmarked)		> 10

Structure (SMILES)	IC50 [1] [µM]	IC50 [2] [µM]
CCOC(=O)C1=C(c2ccccc2)NC(=S)NC1c1ccccc1OC (centres unmarked)		> 10
CC1=C(C(=O)OCc2ccc(C)cc2)C(c2ccccc2F)NC(=O)N1 (centres unmarked)		> 10
CC1=C(C(=O)OCC2CCCCC2)C(c2ccccc2F)NC(=O)N1 (centres unmarked)		> 10
CCOC(=O)C1=C(C)NC(=O)NC1c1ccc(O)cc1 (centres unmarked)		> 10
CCN(CC)C(=O)C1=C(C)NC(=S)NC1c1ccccc1Cl (centres unmarked)		> 10
CCOc1ccccc1C1NC(=O)NC(C)=C1C(=O)OC (centres unmarked)		> 10
CCN(CC)C(=O)C1=C(C)NC(=S)NC1c1ccc(Br)cc1 (centres unmarked)		> 10
CCOC(=O)C1=C(CN2CCC(C)CC2)NC(=O)NC1c1ccc(Cl)cc1 (centres unmarked)		> 10
CCN(CC)C(=O)C1=C(C)NC(=S)NC1c1ccc(F)cc1 (centres unmarked)		> 10
C=CCOC(=O)C1=C(C)NC(=O)NC1c1ccc(CC)cc1 (centres unmarked)		> 10
CCOC(=O)C1=C(C)NC(=S)NC1c1ccccc1 (centres unmarked)		> 10
CCN(CC)C(=O)C1=C(C)NC(=S)NC1c1ccccc1F (centres unmarked)		> 10
CCOC(=O)C1=C(C)NC(=O)NC1c1ccc(F)cc1F (centres unmarked)		> 10
CC1=C(C(=O)OCc2ccccc2)C(c2c(F)cccc2Cl)NC(=O)N1 (centres unmarked)		> 10
COC(=O)C1=C(C)N(C)C(=S)NC1c1ccc(Cl)cc1 (centres unmarked)		≤ 10
COc1cccc(C2NC(=S)NC(C)=C2C(=O)N(C)C)c1OC (centres unmarked)		> 10
CC1=C(C(=O)OC(C)(C)C)C(c2ccccc2Cl)NC(=O)N1 (centres unmarked)		> 10
COC(=O)C1=C(C)NC(=S)NC1c1ccccc1OC(C)C (centres unmarked)		> 10
CC1=C(C(=O)OCC(C)C)C(c2c(F)cccc2Cl)NC(=O)N1C (centres unmarked)		≤ 10
CC1=C(C(=O)OCCC(C)C)C(c2ccc(Cl)c(Cl)c2)NC(=O)N1 (centres unmarked)		> 10
COC(=O)C1=C(C)NC(=O)NC1c1ccccc1OC (centres unmarked)		> 10
Cc1cc(C)c(-c2csc(NC(=O)Cn3cnc4c3c(=O)n(C)c(=O)n4C)n2)c(C)c1 [Compound 272]	> 10	
CC1=C(C(=O)Nc2ccc(Br)cc2)C(c2ccccc2)NC(=O)N1C (centres unmarked)		> 10
CC1=C(C(=O)N2CCOCC2)C(c2ccc(F)cc2)NC(=O)N1 (centres unmarked)		> 10

The next lines start with the values.

IC50 [1] [µM]	IC50 [2] [µM]	Structure (SMILES)
> 10		Cn1c(=O)c2c(ncn2CC(=O)Nc2ccccc2SCc2ccccc2)n(C)c1=O [Compound 351]
> 10		CCNC(=O)Cn1cnc2c1c(=O)n(C)c(=O)n2C [Compound 216]
> 10		Cn1c(=O)c2c(ncn2CC(=O)NC(c2ccc(F)cc2)c2cccs2)n(C)c1=O (centres unmarked) [Compound 343]
> 10		Cn1c(=O)c2c(ncn2CC(=O)Nc2ccccn2)n(C)c1=O [Compound 369]
> 10		Cn1c(=O)c2c(ncn2CC(=O)NC(c2ccccc2)c2cccs2)n(C)c1=O (centres unmarked) [Compound 352]
> 10		CN(CC(=O)Nc1ccc(F)c(F)c1F)C(=O)Cn1cnc2c1c(=O)n(C)c(=O)n2C [Compound 293]
> 10		CC(=O)c1ccccc1NC(=O)Cn1cnc2c1c(=O)n(C)c(=O)n2C [Compound 309]
≥ 20		Cc1cccc(NC(=O)c2ccccc2NC(=O)Cn2cnc3c2c(=O)n(C)c(=O)n3C)c1 [Compound 355]
> 10		CC(NC(=O)Cn1cnc2c1c(=O)n(C)c(=O)n2C)c1ccccc1 (centres unmarked) [Compound 220]
> 10		CC(NC(=O)Cn1cnc2c1c(=O)n(C)c(=O)n2C)c1ccc2c(c1)OCCO2 (centres unmarked) [Compound 310]
> 10		Cn1c(=O)c2c(ncn2CC(=O)NCc2ccccn2)n(C)c1=O [Compound 243]
≥ 20		CC(NC(=O)Cn1cnc2c1c(=O)n(C)c(=O)n2C)c1ccc(-n2ccnc2)cc1 (centres unmarked) [Compound 325]
> 10		Cn1c(=O)c2c(ncn2CC(=O)Nc2ncc(Cl)cc2Cl)n(C)c1=O [Compound 341]
≥ 20		Cc1ccc(NC(=O)Cn2cnc3c2c(=O)n(C)c(=O)n3C)c(Br)c1 [Compound 265]
> 10		Cn1c(=O)c2c(ncn2CC(=O)NCC(c2ccc(F)cc2)N2CCOCC2)n(C)c1=O (centres unmarked) [Compound 317]
> 10		Cn1c(=O)c2c(ncn2CC(=O)Nc2ccccc2-c2nc3ccccc3[nH]2)n(C)c1=O [Compound 260]
> 10		Cn1c(=O)c2c(ncn2CC(=O)NCc2ccc(F)cc2)n(C)c1=O [Compound 238]
> 10		Cn1c(=O)c2c(ncn2CC(=O)NCC(c2ccccc2)N2CCCC2)n(C)c1=O (centres unmarked) [Compound 321]
> 10		Cc1cc(C)c(NC(=O)Cn2cnc3c2c(=O)n(C)c(=O)n3C)c(Cl)c1 [Compound 330]
> 10		Cn1c(=O)c2c(ncn2CC(=O)NCc2ccncc2)n(C)c1=O [Compound 242]
> 10		CC(=O)c1cccc(NC(=O)Cn2cnc3c2c(=O)n(C)c(=O)n3C)c1 [Compound 380]
≤ 10		Cn1c(=O)c2c(ncn2CC(=O)Nc2ccccc2Sc2ccccc2)n(C)c1=O [Compound 384]
≤ 5		Cn1c(=O)c2c(ncn2CC(=O)Nc2ccc(N3CCCCCC3)cc2)n(C)c1=O [Compound 354]
> 10		Cc1ccc(NC(=O)NC(=O)Cn2cnc3c2c(=O)n(C)c(=O)n3C)c(C)c1 [Compound 292]
> 10		Cn1c(=O)c2c(ncn2CC(=O)Nc2cccc3ccccc23)n(C)c1=O [Compound 231]
≤ 10		CCc1sc(NC(=O)Cn2cnc3c2c(=O)n(C)c(=O)n3C)nc1-c1ccccc1 [Compound 381]
> 10		COc1ccccc1NC(=O)C(C)n1cnc2c1c(=O)n(C)c(=O)n2C (centres unmarked) [Compound 303]
> 10		Cn1c(=O)c2c(ncn2CC(=O)Nc2ccc(F)c(F)c2F)n(C)c1=O [Compound 276]
≥ 30		Cc1cccc(NC(=O)C(C)n2cnc3c2c(=O)n(C)c(=O)n3C)c1 (centres unmarked) [Compound 328]

— US7671061B2, “Methods and compositions for treating pain” (Hydra Biosciences, Inc., priority 2005, dated 2010)
